Laboratory results taken from patent publication US20240293413A1, “COMPOUND AND METHOD FOR TREATING CHEMOTHERAPY-RELATED GASTROINTESTINAL SIDE EFFECTS” (ONQUALITY PHARMACEUTICALS CHINA LTD., priority 2021, published 2024).

Tested on: Chemotherapeutic agent-caused constipation models of Balb/c mice
Test: Examples 272-342 (Table 5): oral CDK inhibitor, relief of constipation caused by a chemotherapeutic agent;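 further: percent of treated mice relieved versus chemotherapy group by feces reduction rate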
Format: in vivo
Procedure, shortened: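 Feces reduction rate (%) = (control − treated)/control × 100%, based on the 3-hour feces amount recorded each day. Groups of 10 Balb/c mice received solvent, chemotherapeutic agent alone, or an oral CDK inhibitor before the chemotherapeutic agent.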

## CN(C)C(=O)c1cc2cnc(Nc3ccc(N4CCNCC4)cn3)nc2n1C1CCCC1 [Ribociclib]
Example 294, Fluorouracil (5-Fu) intravenous injection 225 mg/kg single, CDK inhibitor oral 150 mg/kg single, 0.5 h before, cycle 7 days
  Relative remission rate: 50%
Example 302, Oxaliplatin intravenous injection 20 mg/kg single, CDK inhibitor oral 150 mg/kg single, 1 h before, cycle 8 days
  Relative remission rate: 50%
Example 310, Irinotecan (CPT-11) oral administration 300 mg/kg single, CDK inhibitor oral 100 mg/kg single, 20 h before, cycle 11 days
  Relative remission rate: 50%
Example 325, Gemcitabine and paclitaxel intravenous injection 60 (G) 10 (P) mg/kg single, CDK inhibitor oral 125 mg/kg single, 0.5 h before, cycle 8 days
  Relative remission rate: 50%
Example 336, Methotrexate (MTX) intravenous injection 300 mg/kg single, CDK inhibitor oral 125 mg/kg single, 0.5 h before, cycle 7 days
  Relative remission rate: 40%
Example 337, Methotrexate (MTX) intravenous injection 300 mg/kg single, CDK inhibitor oral 125 mg/kg single, 4 h before, cycle 7 days
  Relative remission rate: 40%
Example 338, Methotrexate (MTX) intravenous injection 300 mg/kg single, CDK inhibitor oral 125 mg/kg single, 8 h before, cycle 7 days
  Relative remission rate: 50%
Example 339, Methotrexate (MTX) intravenous injection 300 mg/kg single, CDK inhibitor oral 125 mg/kg single, 12 h before, cycle 7 days
  Relative remission rate: 30%
Example 340, Methotrexate (MTX) intravenous injection 300 mg/kg single, CDK inhibitor oral 125 mg/kg single, 24 h before, cycle 7 days
  Relative remission rate: 60%
Example 341, Methotrexate (MTX) intravenous injection 300 mg/kg single, CDK inhibitor oral 125 mg/kg single, 48 h before, cycle 7 days
  Relative remission rate: 0%

## CCN1CCN(Cc2ccc(Nc3ncc(F)c(-c4cc(F)c5nc(C)n(C(C)C)c5c4)n3)nc2)CC1 [Abemaciclib]
Example 295, Fluorouracil (5-Fu) intramuscular injection 200 mg/kg single, CDK inhibitor oral 100 mg/kg single, 22 h before, cycle 7 days
  Relative remission rate: 60%
Example 296, Oxaliplatin intraperitoneal injection 20 mg/kg single, CDK inhibitor oral 100 mg/kg single, 0.5 h before, cycle 8 days
  Relative remission rate: 50%
Example 297, Oxaliplatin intraperitoneal injection 20 mg/kg single, CDK inhibitor oral 100 mg/kg single, 4 h before, cycle 8 days
  Relative remission rate: 40%
Example 298, Oxaliplatin intraperitoneal injection 20 mg/kg single, CDK inhibitor oral 100 mg/kg single, 8 h before, cycle 8 days
  Relative remission rate: 60%
Example 299, Oxaliplatin intraperitoneal injection 20 mg/kg single, CDK inhibitor oral 100 mg/kg single, 12 h before, cycle 8 days
  Relative remission rate: 60%
Example 300, Oxaliplatin intraperitoneal injection 20 mg/kg single, CDK inhibitor oral 100 mg/kg single, 24 h before, cycle 8 days
  Relative remission rate: 40%
Example 301, Oxaliplatin intraperitoneal injection 20 mg/kg single, CDK inhibitor oral 100 mg/kg single, 48 h before, cycle 8 days
  Relative remission rate: 0%
Example 312, Irinotecan (CPT-11) intravenous injection 260 mg/kg single, CDK inhibitor oral 150 mg/kg single, 14 h before, cycle 7 days
  Relative remission rate: 50%
Example 324, Gemcitabine and paclitaxel intraperitoneal injection 60 (G) 10 (P) mg/kg single, CDK inhibitor oral 150 mg/kg single, 24 h before, cycle 8 days
  Relative remission rate: 60%
Example 342, Methotrexate (MTX) intraperitoneal injection 300 mg/kg single, CDK inhibitor oral 150 mg/kg single, 8 h before, cycle 7 days
  Relative remission rate: 30%

## CN1CCN(c2ccc(Nc3ncc4cc5n(c4n3)C3(CCCCC3)CNC5=O)nc2)CC1 [Trilaciclib (G1T28), Trilaciclib]
Example 272, Fluorouracil (5-Fu) intraperitoneal injection 175 mg/kg single, CDK inhibitor oral 100 mg/kg single, 0.5 h before, cycle 7 days
  Relative remission rate: 50%
Example 273, Fluorouracil (5-Fu) intraperitoneal injection 175 mg/kg single, CDK inhibitor oral 100 mg/kg single, 1 h before, cycle 7 days
  Relative remission rate: 50%
Example 274, Fluorouracil (5-Fu) intraperitoneal injection 175 mg/kg single, CDK inhibitor oral 100 mg/kg single, 2 h before, cycle 7 days
  Relative remission rate: 50%
Example 275, Fluorouracil (5-Fu) intraperitoneal injection 175 mg/kg single, CDK inhibitor oral 100 mg/kg single, 3 h before, cycle 7 days
  Relative remission rate: 40%
Example 276, Fluorouracil (5-Fu) intraperitoneal injection 175 mg/kg single, CDK inhibitor oral 100 mg/kg single, 4 h before, cycle 7 days
  Relative remission rate: 60%
Example 277, Fluorouracil (5-Fu) intraperitoneal injection 175 mg/kg single, CDK inhibitor oral 100 mg/kg single, 5 h before, cycle 7 days
  Relative remission rate: 40%
Example 278, Fluorouracil (5-Fu) intraperitoneal injection 175 mg/kg single, CDK inhibitor oral 100 mg/kg single, 6 h before, cycle 7 days
  Relative remission rate: 60%
Example 279, Fluorouracil (5-Fu) intraperitoneal injection 175 mg/kg single, CDK inhibitor oral 100 mg/kg single, 7 h before, cycle 7 days
  Relative remission rate: 70%
Example 280, Fluorouracil (5-Fu) intraperitoneal injection 175 mg/kg single, CDK inhibitor oral 100 mg/kg single, 8 h before, cycle 7 days
  Relative remission rate: 70%
Example 281, Fluorouracil (5-Fu) intraperitoneal injection 175 mg/kg single, CDK inhibitor oral 100 mg/kg single, 9 h before, cycle 7 days
  Relative remission rate: 60%
Example 282, Fluorouracil (5-Fu) intraperitoneal injection 175 mg/kg single, CDK inhibitor oral 100 mg/kg single, 10 h before, cycle 7 days
  Relative remission rate: 60%
Example 283, Fluorouracil (5-Fu) intraperitoneal injection 175 mg/kg single, CDK inhibitor oral 100 mg/kg single, 11 h before, cycle 7 days
  Relative remission rate: 50%
Example 284, Fluorouracil (5-Fu) intraperitoneal injection 175 mg/kg single, CDK inhibitor oral 100 mg/kg single, 12 h before, cycle 7 days
  Relative remission rate: 70%
Example 285, Fluorouracil (5-Fu) intraperitoneal injection 175 mg/kg single, CDK inhibitor oral 100 mg/kg single, 13 h before, cycle 7 days
  Relative remission rate: 40%
Example 286, Fluorouracil (5-Fu) intraperitoneal injection 175 mg/kg single, CDK inhibitor oral 100 mg/kg single, 14 h before, cycle 7 days
  Relative remission rate: 60%
Example 287, Fluorouracil (5-Fu) intraperitoneal injection 175 mg/kg single, CDK inhibitor oral 100 mg/kg single, 16 h before, cycle 7 days
  Relative remission rate: 50%
Example 288, Fluorouracil (5-Fu) intraperitoneal injection 175 mg/kg single, CDK inhibitor oral 100 mg/kg single, 18 h before, cycle 7 days
  Relative remission rate: 60%
Example 289, Fluorouracil (5-Fu) intraperitoneal injection 175 mg/kg single, CDK inhibitor oral 100 mg/kg single, 20 h before, cycle 7 days
  Relative remission rate: 50%
Example 290, Fluorouracil (5-Fu) intraperitoneal injection 175 mg/kg single, CDK inhibitor oral 100 mg/kg single, 22 h before, cycle 7 days
  Relative remission rate: 30%
Example 291, Fluorouracil (5-Fu) intraperitoneal injection 175 mg/kg single, CDK inhibitor oral 100 mg/kg single, 24 h before, cycle 7 days
  Relative remission rate: 30%
Example 292, Fluorouracil (5-Fu) intraperitoneal injection 175 mg/kg single, CDK inhibitor oral 100 mg/kg single, 48 h before, cycle 7 days
  Relative remission rate: 0%
Example 303, Fluorouracil and oxaliplatin intraperitoneal injection 100 (F) 10 (O) mg/kg single, CDK inhibitor oral 100 mg/kg single, 24 h before, cycle 10 days
  Relative remission rate: 40%
Example 311, Irinotecan (CPT-11) intramuscular injection 260 mg/kg single, CDK inhibitor oral 50 mg/kg single, 1 h before, cycle 7 days
  Relative remission rate: 60%
Example 314, Fluorouracil and oxaliplatin and irinotecan intraperitoneal injection 70 (F) 5 (O) 100 (I) mg/kg single, CDK inhibitor oral 180 mg/kg single, 12 h before, cycle 10 days
  Relative remission rate: 60%
Example 323, Docetaxel (DTX) intravenous injection 10 mg/kg single, CDK inhibitor oral 100 mg/kg single, 9 h before, cycle 8 days
  Relative remission rate: 60%
Example 327, Cytarabine (Ara-C) intraperitoneal injection 600 mg/kg single, CDK inhibitor oral 100 mg/kg single, 0.5 h before, cycle 8 days
  Relative remission rate: 80%
Example 328, Cytarabine (Ara-C) intraperitoneal injection 600 mg/kg single, CDK inhibitor oral 100 mg/kg single, 4 h before, cycle 8 days
  Relative remission rate: 60%
Example 329, Cytarabine (Ara-C) intraperitoneal injection 600 mg/kg single, CDK inhibitor oral 100 mg/kg single, 8 h before, cycle 8 days
  Relative remission rate: 40%
Example 330, Cytarabine (Ara-C) intraperitoneal injection 600 mg/kg single, CDK inhibitor oral 100 mg/kg single, 12 h before, cycle 8 days
  Relative remission rate: 40%
Example 331, Cytarabine (Ara-C) intraperitoneal injection 600 mg/kg single, CDK inhibitor oral 100 mg/kg single, 24 h before, cycle 8 days
  Relative remission rate: 40%
Example 332, Cytarabine (Ara-C) intraperitoneal injection 600 mg/kg single, CDK inhibitor oral 100 mg/kg single, 48 h before, cycle 8 days
  Relative remission rate: 0%
